# In patent US9067926B2, “Fluoromethyl-5,6-dihydro-4H-[1,3]OXAZINES” (F. Hoffmann-La Roche AG, priority 2012, dated 2015):
# pIC50: −log10 of the molar value.
# Target: T1, BACE1 (Homo sapiens, UniProt P56817)
# T1 construct: endogenous in cells; host or cells: HEK293 APP cells
# Test: Cellular Aβ-lowering assay (Abeta 40 AlphaLISA)
# Type: cell-based
# Details: HEK293 APP cells, 18-20 hrs incubation, Aβ 40 in culture supernatant; read-out: BACE1 cell act. Aβ40 IC50
# Description: Cellular Aβ-Lowering Assay:
# The Abeta 40 AlphaLISA Assay can be used. The HEK293 APP cells were seeded in 96 well Microtiter plates in cell culture medium (Iscove's, plus 10% (vv) fetal bovine serum, penicillinstreptomycin) to about 80% confluency and the compounds were added at a 3× concentration in 13 volume of culture medium (final DMSO concentration was kept at 1% vv). After 18-20 hrs incubation at 37° C. and 5% CO2 in a humidified incubator, the culture supernatants were harvested for the determination of Aβ 40 concentrations using Perkin-Elmer Human Amyloid beta 1-40 (high specificity) Kit (Cat# AL275C).
# Levels of Aβ 40 in the culture supernatants were calculated as percentage of maximum signal (cells treated with 1% DMSO without inhibitor). The IC50 values were calculated using the Excel XLfit software.
# T1 sequence (P56817 46-501): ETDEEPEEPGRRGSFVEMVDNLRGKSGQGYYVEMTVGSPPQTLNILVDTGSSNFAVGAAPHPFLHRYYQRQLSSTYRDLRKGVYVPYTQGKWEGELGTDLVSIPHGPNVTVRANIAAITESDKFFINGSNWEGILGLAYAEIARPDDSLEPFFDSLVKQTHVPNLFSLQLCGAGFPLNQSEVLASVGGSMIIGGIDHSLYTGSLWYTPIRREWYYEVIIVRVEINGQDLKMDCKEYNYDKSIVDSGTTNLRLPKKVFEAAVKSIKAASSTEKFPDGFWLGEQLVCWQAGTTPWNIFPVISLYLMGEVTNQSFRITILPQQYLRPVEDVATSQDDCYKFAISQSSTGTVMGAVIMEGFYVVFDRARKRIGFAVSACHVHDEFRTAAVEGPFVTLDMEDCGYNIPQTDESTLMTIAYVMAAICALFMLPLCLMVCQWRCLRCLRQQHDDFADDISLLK
row,SMILES,pIC50
1,"NC1=N[C@](CF)(c2cc(NC(=O)c3ccc(Cl)cn3)ccc2F)C[C@@H](C(F)(F)F)O1 [Example 4, N-(3-((4S,6S)-2-amino-4-(fluoromethyl)-6-(trifluoromethyl)-5,6-dihydro-4H-1,3-oxazin-4-yl)-4-fluorophenyl)-5-chloropicolinamide]",7.66
2,"COc1cnc(C(=O)Nc2ccc(F)c([C@]3(C)C[C@@H](C(F)(F)F)OC(N)=N3)c2)cn1 [Example 5, N-(3-((4S,6S)-2-amino-4-methyl-6-(trifluoromethyl)-5,6-dihydro-4H-1,3-oxazin-4-yl)-4-fluorophenyl)-5-methoxypyrazine-2-carboxamide]",8.30
3,"C[C@@]1(c2cc(NC(=O)c3cnc(OCC(F)F)cn3)ccc2F)C[C@@H](C(F)(F)F)OC(N)=N1 [Example 6, N-(3-((4S,6S)-2-amino-4-methyl-6-(trifluoromethyl)-5,6-dihydro-4H-1,3-oxazin-4-yl)-4-fluorophenyl)-5-(2,2-difluoroethoxyl)pyrazine-2-carboxamide]",7.62
4,"C[C@@]1(c2cc(NC(=O)c3cnc(OCC(F)(F)F)cn3)ccc2F)C[C@@H](C(F)(F)F)OC(N)=N1 [Example 7, N-(3-((4S,6S)-2-amino-4-methyl-6-(trifluoromethyl)-5,6-dihydro-4H-1,3-oxazin-4-yl)-4-fluorophenyl)-5-(2,2,2-trifluoroethoxyl)pyrazine-2-carboxamide]",7.82
5,"C[C@@]1(c2cc(NC(=O)c3ccc(Cl)cn3)ccc2F)C[C@H](C(F)(F)F)OC(N)=N1 [Example 9, N-(3-((4S,6R)-2-Amino-4-methyl-6-(trifluoromethyl)-5,6-dihydro-4H-1,3-oxazin-4-yl)-4-fluorophenyl)-5-chloropicolinamide]",6.15
6,"C[C@@]1(c2cc(NC(=O)c3ncc(Cl)cc3Cl)ccc2F)C[C@@H](C(F)(F)F)OC(N)=N1 [Example 10, N-(3-((4S,6S)-2-Amino-4-methyl-6-(trifluoromethyl)-5,6-dihydro-4H-1,3-oxazin-4-yl)-4-fluorophenyl)-3,5-chloropicolinamide]",8.22
7,"Cc1cc(C#N)cnc1C(=O)Nc1ccc(F)c([C@]2(C)C[C@@H](C(F)(F)F)OC(N)=N2)c1 [Example 12, N-(3-((4S,6S)-2-Amino-4-methyl-6-(trifluoromethyl)-5,6-dihydro-4H-1,3-oxazin-4-yl)-4-fluorophenyl)-5-cyano-3-methylpicolinamide]",8.52
8,"C[C@@]1(c2cc(NC(=O)c3ncc(C#N)cc3Cl)ccc2F)C[C@@H](C(F)(F)F)OC(N)=N1 [Example 13, N-(3-((4S,6S)-2-Amino-4-methyl-6-(trifluoromethyl)-5,6-dihydro-4H-1,3-oxazin-4-yl)-4-fluorophenyl)-3-chloro-5-cyanopicolinamide]",7.89
9,"COc1ccc(C(=O)Nc2ccc(F)c([C@]3(C)C[C@@H](C(F)(F)F)OC(N)=N3)c2)nc1 [Example 14, N-(3-((4S,6S)-2-Amino-4-methyl-6-(trifluoromethyl)-5,6-dihydro-4H-1,3-oxazin-4-yl)-4-fluorophenyl)-5-methoxypicolinamide]",8.70
10,"C[C@@]1(c2cc(NC(=O)c3ccc(OC(F)F)cn3)ccc2F)C[C@@H](C(F)(F)F)OC(N)=N1 [Example 15, N-(3-((4S,6S)-2-Amino-4-methyl-6-(trifluoromethyl)-5,6-dihydro-4H-1,3-oxazin-4-yl)-4-fluorophenyl)-5-(difluoromethoxy)picolinamide]",9.00
11,"C[C@@]1(c2cc(NC(=O)c3ccc(OC(F)(F)F)cn3)ccc2F)C[C@@H](C(F)(F)F)OC(N)=N1 [Example 16, N-(3-((4S,6S)-2-Amino-4-methyl-6-(trifluoromethyl)-5,6-dihydro-4H-1,3-oxazin-4-yl)-4-fluorophenyl)-5-(trifluoromethoxy)picolinamide]",9.00
12,"C[C@@]1(c2cc(NC(=O)c3ccc(C(F)F)cn3)ccc2F)C[C@@H](C(F)(F)F)OC(N)=N1 [Example 17, N-(3-((4S,6S)-2-Amino-4-methyl-6-(trifluoromethyl)-5,6-dihydro-4H-1,3-oxazin-4-yl)-4-fluorophenyl)-5-(difluoromethyl)picolinamide]",8.70
13,"C[C@@]1(c2cc(NC(=O)c3ccc(OCC(F)(F)F)cn3)ccc2F)C[C@@H](C(F)(F)F)OC(N)=N1 [Example 18, N-(3-((4S,6S)-2-Amino-4-methyl-6-(trifluoromethyl)-5,6-dihydro-4H-1,3-oxazin-4-yl)-4-fluorophenyl)-5-(2,2,2-trifluoroethoxy)picolinamide]",8.10
14,"C[C@@]1(c2cc(NC(=O)c3cnc(CF)cn3)ccc2F)C[C@@H](C(F)(F)F)OC(N)=N1 [Example 19, N-(3-((4S,6S)-2-Amino-4-methyl-6-(trifluoromethyl)-5,6-dihydro-4H-1,3-oxazin-4-yl)-4-fluorophenyl)-5-(fluoromethyl)pyrazine-2-carboxamide]",8.22
15,"C[C@@]1(c2cc(NC(=O)c3cnc(C(F)F)cn3)ccc2F)C[C@@H](C(F)(F)F)OC(N)=N1 [Example 20, N-(3-((4S,6S)-2-Amino-4-methyl-6-(trifluoromethyl)-5,6-dihydro-4H-1,3-oxazin-4-yl)-4-fluorophenyl)-5-(difluoromethyl)pyrazine-2-carboxamide]",8.30
16,"Cc1cnc(C(=O)Nc2ccc(F)c([C@]3(C)C[C@@H](C(F)(F)F)OC(N)=N3)c2)cn1 [Example 21, N-(3-((4S,6S)-2-Amino-4-methyl-6-(trifluoromethyl)-5,6-dihydro-4H-1,3-oxazin-4-yl)-4-fluorophenyl)-5-methylpyrazine-2-carboxamide]",7.23
17,"C[C@@]1(c2cc(NC(=O)c3cnc(OCF)cn3)ccc2F)C[C@@H](C(F)(F)F)OC(N)=N1 [Example 23, N-(3-((4S,6S)-2-Amino-4-methyl-6-(trifluoromethyl)-5,6-dihydro-4H-1,3-oxazin-4-yl)-4-fluorophenyl)-5-(fluoromethoxy)pyrazine-2-carboxamide]",9.00
18,"C[C@@]1(c2cc(NC(=O)c3cnc(OC(F)F)cn3)ccc2F)C[C@@H](C(F)(F)F)OC(N)=N1 [Example 24, N-(3-((4S,6S)-2-Amino-4-methyl-6-(trifluoromethyl)-5,6-dihydro-4H-1,3-oxazin-4-yl)-4-fluorophenyl)-5-(difluoromethoxy)pyrazine-2-carboxamide]",8.52
19,"C[C@@]1(c2cc(NC(=O)c3coc(CF)n3)ccc2F)C[C@@H](C(F)(F)F)OC(N)=N1 [Example 25, N-(3-((4S,6S)-2-Amino-4-methyl-6-(trifluoromethyl)-5,6-dihydro-4H-1,3-oxazin-4-yl)-4-fluorophenyl)-2-(fluoromethyl)oxazole-4-carboxamide]",9.10
20,"C[C@@]1(c2cc(NC(=O)c3nn(C(F)F)cc3Cl)ccc2F)C[C@@H](C(F)(F)F)OC(N)=N1 [Example 26, N-(3-((4S,6S)-2-Amino-4-methyl-6-(trifluoromethyl)-5,6-dihydro-4H-1,3-oxazin-4-yl)-4-fluorophenyl)-4-chloro-1-(difluoromethyl)-1H-pyrazole-3-carboxamide]",9.00
21,"Cc1cc(C#N)cnc1C(=O)Nc1ccc(F)c([C@]2(CF)C[C@@H](C(F)(F)F)OC(N)=N2)c1 [Example 27, N-(3-((4S,6S)-2-Amino-4-(fluoromethyl)-6-(trifluoromethyl)-5,6-dihydro-4H-1,3-oxazin-4-yl)-4-fluorophenyl)-5-cyano-3-methylpicolinamide]",8.70
22,"N#Cc1cnc(C(=O)Nc2ccc(F)c([C@]3(CF)C[C@@H](C(F)(F)F)OC(N)=N3)c2)c(Cl)c1 [Example 28, N-(3-((4S,6S)-2-Amino-4-(fluoromethyl)-6-(trifluoromethyl)-5,6-dihydro-4H-1,3-oxazin-4-yl)-4-fluorophenyl)-3-chloro-5-cyanopicolinamide]",7.96
23,"NC1=N[C@](CF)(c2cc(NC(=O)c3ccc(OC(F)F)cn3)ccc2F)C[C@@H](C(F)(F)F)O1 [Example 31, N-(3-((4S,6S)-2-Amino-4-(fluoromethyl)-6-(trifluoromethyl)-5,6-dihydro-4H-1,3-oxazin-4-yl)-4-fluorophenyl)-5-(difluoromethoxy)picolinamide]",8.15
24,"NC1=N[C@](CF)(c2cc(NC(=O)c3ccc(OC(F)(F)F)cn3)ccc2F)C[C@@H](C(F)(F)F)O1 [Example 32, N-(3-((4S,6S)-2-Amino-4-(fluoromethyl)-6-(trifluoromethyl)-5,6-dihydro-4H-1,3-oxazin-4-yl)-4-fluorophenyl)-5-(trifluoromethoxy)picolinamide]",8.15
25,"NC1=N[C@](CF)(c2cc(NC(=O)c3ccc(C(F)F)cn3)ccc2F)C[C@@H](C(F)(F)F)O1 [Example 33, N-(3-((4S,6S)-2-Amino-4-(fluoromethyl)-6-(trifluoromethyl)-5,6-dihydro-4H-1,3-oxazin-4-yl)-4-fluorophenyl)-5-(difluoromethyl)picolinamide]",8.00
26,"NC1=N[C@](CF)(c2cc(NC(=O)c3ccc(OCC(F)(F)F)cn3)ccc2F)C[C@@H](C(F)(F)F)O1 [Example 34, N-(3-((4S,6S)-2-Amino-4-(fluoromethyl)-6-(trifluoromethyl)-5,6-dihydro-4H-1,3-oxazin-4-yl)-4-fluorophenyl)-5-(2,2,2-trifluoroethoxy)picolinamide]",7.15
27,"NC1=N[C@](CF)(c2cc(NC(=O)c3cnc(CF)cn3)ccc2F)C[C@@H](C(F)(F)F)O1 [Example 37, N-(3-((4S,6S)-2-Amino-4-(fluoromethyl)-6-(trifluoromethyl)-5,6-dihydro-4H-1,3-oxazin-4-yl)-4-fluorophenyl)-5-(fluoromethyl)ypyrazine-2-carboxamide]",7.28
